Data: the kinase profiling compilation of Christmann-Franck et al. (2016)

Legend:
Assay in all cases: KINOMEscan competition binding
Conditions in all cases: compound 10.0 µM
CAMKK2 (human) = CAMKK2 (human) (UniProt Q96RR4)
CDC42BPG (human) = CDC42BPG (human) (UniProt Q6DT37)
DCLK1 (human) = DCLK1 (human) (UniProt O15075)
DCLK2 (human) = DCLK2 (human) (UniProt Q8N568)
GAK (human) = GAK (human) (UniProt O14976)
LIMK2 (human) = LIMK2 (human) (UniProt P53671)
MAPK7 (human) = MAPK7 (human) (UniProt Q13164)
MYLK (human) = MYLK (human) (UniProt Q15746)
PLK1 (human) = PLK1 (human) (UniProt P53350)
Chain of PLK1 (human) (P53350 whole entry, looked up): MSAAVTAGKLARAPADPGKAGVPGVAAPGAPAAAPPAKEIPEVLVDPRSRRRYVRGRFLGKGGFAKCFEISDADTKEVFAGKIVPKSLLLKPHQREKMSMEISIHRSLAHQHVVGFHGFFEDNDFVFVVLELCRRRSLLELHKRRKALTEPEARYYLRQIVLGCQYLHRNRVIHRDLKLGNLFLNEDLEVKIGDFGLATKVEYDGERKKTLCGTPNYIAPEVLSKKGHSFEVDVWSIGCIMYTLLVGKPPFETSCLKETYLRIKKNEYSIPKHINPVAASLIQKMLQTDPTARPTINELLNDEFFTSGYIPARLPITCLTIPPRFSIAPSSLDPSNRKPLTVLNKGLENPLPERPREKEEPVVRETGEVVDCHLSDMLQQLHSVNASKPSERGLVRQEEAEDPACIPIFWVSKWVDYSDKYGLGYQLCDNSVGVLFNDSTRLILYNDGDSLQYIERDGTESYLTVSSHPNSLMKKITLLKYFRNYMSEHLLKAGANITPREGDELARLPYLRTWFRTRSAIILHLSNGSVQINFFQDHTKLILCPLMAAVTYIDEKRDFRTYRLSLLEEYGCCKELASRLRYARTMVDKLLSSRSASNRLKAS

PLK3 (human) = PLK3 (human) (UniProt Q9H4B4)
Chain of PLK3 (human) (Q9H4B4 whole entry, looked up): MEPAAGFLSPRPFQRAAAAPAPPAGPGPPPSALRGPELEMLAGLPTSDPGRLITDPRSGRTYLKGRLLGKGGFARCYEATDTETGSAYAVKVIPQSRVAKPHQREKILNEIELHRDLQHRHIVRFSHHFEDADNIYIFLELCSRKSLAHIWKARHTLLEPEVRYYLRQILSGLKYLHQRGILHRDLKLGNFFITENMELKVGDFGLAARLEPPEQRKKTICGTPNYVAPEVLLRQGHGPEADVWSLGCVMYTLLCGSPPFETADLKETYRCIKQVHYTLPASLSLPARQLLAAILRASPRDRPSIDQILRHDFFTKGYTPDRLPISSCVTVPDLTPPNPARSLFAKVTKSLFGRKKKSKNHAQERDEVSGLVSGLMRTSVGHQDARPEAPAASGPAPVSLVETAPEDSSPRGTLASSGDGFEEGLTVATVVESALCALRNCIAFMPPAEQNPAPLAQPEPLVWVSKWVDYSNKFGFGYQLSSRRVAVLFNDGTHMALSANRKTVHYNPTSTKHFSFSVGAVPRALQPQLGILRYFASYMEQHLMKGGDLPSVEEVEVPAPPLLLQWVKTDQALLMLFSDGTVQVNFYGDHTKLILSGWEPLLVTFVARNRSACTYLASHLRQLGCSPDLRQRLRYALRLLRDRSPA

ROS1 (human) = ROS1 (human) (UniProt P08922)
SLK (human) = SLK (human) (UniProt Q9H2G2)
Chain of SLK (human) (Q9H2G2 whole entry, looked up): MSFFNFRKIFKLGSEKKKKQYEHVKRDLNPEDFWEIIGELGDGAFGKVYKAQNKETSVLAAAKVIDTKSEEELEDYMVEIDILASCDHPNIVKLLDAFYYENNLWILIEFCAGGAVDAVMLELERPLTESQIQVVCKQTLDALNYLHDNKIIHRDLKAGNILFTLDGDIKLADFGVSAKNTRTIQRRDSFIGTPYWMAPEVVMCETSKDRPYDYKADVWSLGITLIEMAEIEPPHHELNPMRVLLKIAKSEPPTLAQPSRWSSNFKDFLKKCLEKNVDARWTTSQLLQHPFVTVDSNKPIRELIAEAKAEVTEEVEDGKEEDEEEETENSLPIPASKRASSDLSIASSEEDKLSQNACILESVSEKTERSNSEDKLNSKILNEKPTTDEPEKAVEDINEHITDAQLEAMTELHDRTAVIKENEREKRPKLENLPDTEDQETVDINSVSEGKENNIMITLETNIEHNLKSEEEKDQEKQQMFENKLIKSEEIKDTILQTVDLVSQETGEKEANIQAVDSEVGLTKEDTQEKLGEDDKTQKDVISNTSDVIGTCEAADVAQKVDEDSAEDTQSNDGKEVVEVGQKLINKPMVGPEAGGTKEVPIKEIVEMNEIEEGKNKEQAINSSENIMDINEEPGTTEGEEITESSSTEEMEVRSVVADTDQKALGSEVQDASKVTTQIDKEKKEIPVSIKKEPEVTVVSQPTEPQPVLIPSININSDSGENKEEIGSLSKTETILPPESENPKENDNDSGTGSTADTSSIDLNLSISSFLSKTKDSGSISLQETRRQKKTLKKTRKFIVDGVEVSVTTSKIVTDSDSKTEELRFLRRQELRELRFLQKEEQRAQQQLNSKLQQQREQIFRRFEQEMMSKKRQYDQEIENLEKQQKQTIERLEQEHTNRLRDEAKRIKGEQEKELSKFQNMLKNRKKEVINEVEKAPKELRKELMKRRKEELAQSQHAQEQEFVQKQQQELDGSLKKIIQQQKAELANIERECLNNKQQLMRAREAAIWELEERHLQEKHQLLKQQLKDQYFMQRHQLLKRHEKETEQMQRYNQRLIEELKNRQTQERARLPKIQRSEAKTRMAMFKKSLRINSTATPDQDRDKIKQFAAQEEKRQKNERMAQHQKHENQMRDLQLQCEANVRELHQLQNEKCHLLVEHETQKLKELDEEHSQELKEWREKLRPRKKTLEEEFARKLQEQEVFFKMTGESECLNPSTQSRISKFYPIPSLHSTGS

STK33 (human) = STK33 (human) (UniProt Q9BYT3)
TNK1 (human) = TNK1 (human) (UniProt Q13470)
Chain of TNK1 (human) (Q13470 whole entry, looked up): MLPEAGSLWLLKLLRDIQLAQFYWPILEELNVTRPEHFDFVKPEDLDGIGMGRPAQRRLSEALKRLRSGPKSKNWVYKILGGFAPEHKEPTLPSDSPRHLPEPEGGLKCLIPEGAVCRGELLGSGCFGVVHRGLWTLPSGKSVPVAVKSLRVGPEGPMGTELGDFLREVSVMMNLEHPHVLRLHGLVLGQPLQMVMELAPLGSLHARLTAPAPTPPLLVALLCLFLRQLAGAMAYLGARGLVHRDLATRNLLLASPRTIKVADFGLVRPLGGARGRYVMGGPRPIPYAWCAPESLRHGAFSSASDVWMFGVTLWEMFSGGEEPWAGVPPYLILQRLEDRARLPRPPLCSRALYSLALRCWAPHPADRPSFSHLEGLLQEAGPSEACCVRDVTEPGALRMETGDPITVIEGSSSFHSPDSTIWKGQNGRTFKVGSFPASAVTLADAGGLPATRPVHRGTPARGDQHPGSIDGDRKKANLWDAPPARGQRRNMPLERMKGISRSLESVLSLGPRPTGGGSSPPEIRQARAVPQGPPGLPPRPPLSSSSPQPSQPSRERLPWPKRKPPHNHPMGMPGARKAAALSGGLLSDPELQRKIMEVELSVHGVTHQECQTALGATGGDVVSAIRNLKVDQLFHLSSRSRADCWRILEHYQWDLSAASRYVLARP

TTK (human) = TTK (human) (UniProt P33981)
Chain of TTK (human) (P33981 whole entry, looked up): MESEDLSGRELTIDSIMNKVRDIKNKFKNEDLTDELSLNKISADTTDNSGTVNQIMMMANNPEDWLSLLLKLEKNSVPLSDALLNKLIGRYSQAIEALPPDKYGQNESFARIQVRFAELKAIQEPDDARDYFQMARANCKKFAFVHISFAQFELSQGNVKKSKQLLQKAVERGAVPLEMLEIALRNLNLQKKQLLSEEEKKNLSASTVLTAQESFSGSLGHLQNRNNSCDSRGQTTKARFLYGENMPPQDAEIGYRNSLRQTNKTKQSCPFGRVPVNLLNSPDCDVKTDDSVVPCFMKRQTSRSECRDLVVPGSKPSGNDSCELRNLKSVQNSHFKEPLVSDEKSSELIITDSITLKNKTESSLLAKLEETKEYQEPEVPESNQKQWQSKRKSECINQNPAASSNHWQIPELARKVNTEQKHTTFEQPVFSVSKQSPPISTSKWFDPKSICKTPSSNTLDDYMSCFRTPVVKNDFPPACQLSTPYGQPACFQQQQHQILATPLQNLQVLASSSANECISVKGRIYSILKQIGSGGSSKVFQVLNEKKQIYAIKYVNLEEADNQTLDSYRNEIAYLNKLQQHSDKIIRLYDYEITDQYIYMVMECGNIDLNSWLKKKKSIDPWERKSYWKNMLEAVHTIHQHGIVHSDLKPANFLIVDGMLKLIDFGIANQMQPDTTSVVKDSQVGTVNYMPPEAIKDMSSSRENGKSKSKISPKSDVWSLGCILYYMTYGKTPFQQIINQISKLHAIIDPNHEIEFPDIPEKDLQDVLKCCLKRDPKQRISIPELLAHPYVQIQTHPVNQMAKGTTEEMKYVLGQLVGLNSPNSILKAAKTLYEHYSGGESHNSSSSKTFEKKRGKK

AAK1 (human) = AAK1 (human) (UniProt Q2M2I8)
ACVR1 (human) = ACVR1 (human) (UniProt Q04771)
ADCK4 (human) = ADCK4 (human) (UniProt Q96D53)
AURKA (human) = AURKA (human) (UniProt O14965)
AURKB (human) = AURKB (human) (UniProt Q96GD4)
AURKC (human) = AURKC (human) (UniProt Q9UQB9)
BMP2K (human) = BMP2K (human) (UniProt Q9NSY1)
CDK7 (human) = CDK7 (human) (UniProt P50613)
CSNK1D (human) = CSNK1D (human) (UniProt P48730)
CSNK1E (human) = CSNK1E (human) (UniProt P49674)
CSNK1G3 (human) = CSNK1G3 (human) (UniProt Q9Y6M4)
FYN (human) = FYN (human) (UniProt P06241)
IRAK3 (human) = IRAK3 (human) (UniProt Q9Y616)
[1] = molecular target: JAK2 JH1 catalytic (human) (UniProt O60674)
LATS2 (human) = LATS2 (human) (UniProt Q9NRM7)
LCK (human) = LCK (human) (UniProt P06239)
MAP4K2 (human) = MAP4K2 (human) (UniProt Q12851)
MAP4K4 (human) = MAP4K4 (human) (UniProt O95819)
MELK (human) = MELK (human) (UniProt Q14680)
MERTK (human) = MERTK (human) (UniProt Q12866)
MINK1 (human) = MINK1 (human) (UniProt Q8N4C8)
MYLK2 (human) = MYLK2 (human) (UniProt Q9H1R3)
MYLK3 (human) = MYLK3 (human) (UniProt Q32MK0)
MYLK4 (human) = MYLK4 (human) (UniProt Q86YV6)
NEK2 (human) = NEK2 (human) (UniProt P51955)
NEK5 (human) = NEK5 (human) (UniProt Q6P3R8)
NEK9 (human) = NEK9 (human) (UniProt Q8TD19)
NLK (human) = NLK (human) (UniProt Q9UBE8)
PIK3CG (human) = PIK3CG (human) (UniProt P48736)
PIP4K2B (human) = PIP4K2B (human) (UniProt P78356)
PIP5K1A (human) = PIP5K1A (human) (UniProt Q99755)
PLK4 (human) = PLK4 (human) (UniProt O00444)
RIOK1 (human) = RIOK1 (human) (UniProt Q9BRS2)
RIOK2 (human) = RIOK2 (human) (UniProt Q9BVS4)
RIOK3 (human) = RIOK3 (human) (UniProt O14730)
RPS6KA1 KD1 (human) = RPS6KA1 KD1 (human) (UniProt Q15418)
SGK110 (human) = SGK110 (human) (UniProt P0C264)
SRPK3 (human) = SRPK3 (human) (UniProt Q9UPE1)
STK16 (human) = STK16 (human) (UniProt O75716)
Chain of STK16 (human) (O75716 whole entry, looked up): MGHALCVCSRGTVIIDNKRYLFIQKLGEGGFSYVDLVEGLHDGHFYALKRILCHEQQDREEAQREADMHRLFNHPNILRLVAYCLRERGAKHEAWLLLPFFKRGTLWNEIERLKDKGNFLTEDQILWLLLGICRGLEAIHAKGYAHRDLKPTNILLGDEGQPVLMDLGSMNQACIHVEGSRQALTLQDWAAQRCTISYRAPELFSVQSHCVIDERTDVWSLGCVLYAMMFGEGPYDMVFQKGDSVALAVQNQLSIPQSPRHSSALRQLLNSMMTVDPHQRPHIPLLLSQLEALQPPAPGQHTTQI

STK17A (human) = STK17A (human) (UniProt Q9UEE5)
TNIK (human) = TNIK (human) (UniProt Q9UKE5)
TXK (human) = TXK (human) (UniProt P42681)
[2] = molecular target: TYK2 JH1 catalytic (human) (UniProt P29597)
[3] = molecular target: TYK2 JH2 pseudokinase (human) (UniProt P29597)
IGF1R (human) = IGF1R (human) (UniProt P08069)
LATS1 (human) = LATS1 (human) (UniProt O95835)
MAP2K3 (human) = MAP2K3 (human) (UniProt P46734)
MYO3B (human) = MYO3B (human) (UniProt Q8WXR4)
PAK1 (human) = PAK1 (human) (UniProt Q13153)

Chain of DCLK1 (human) (O15075 whole entry, looked up): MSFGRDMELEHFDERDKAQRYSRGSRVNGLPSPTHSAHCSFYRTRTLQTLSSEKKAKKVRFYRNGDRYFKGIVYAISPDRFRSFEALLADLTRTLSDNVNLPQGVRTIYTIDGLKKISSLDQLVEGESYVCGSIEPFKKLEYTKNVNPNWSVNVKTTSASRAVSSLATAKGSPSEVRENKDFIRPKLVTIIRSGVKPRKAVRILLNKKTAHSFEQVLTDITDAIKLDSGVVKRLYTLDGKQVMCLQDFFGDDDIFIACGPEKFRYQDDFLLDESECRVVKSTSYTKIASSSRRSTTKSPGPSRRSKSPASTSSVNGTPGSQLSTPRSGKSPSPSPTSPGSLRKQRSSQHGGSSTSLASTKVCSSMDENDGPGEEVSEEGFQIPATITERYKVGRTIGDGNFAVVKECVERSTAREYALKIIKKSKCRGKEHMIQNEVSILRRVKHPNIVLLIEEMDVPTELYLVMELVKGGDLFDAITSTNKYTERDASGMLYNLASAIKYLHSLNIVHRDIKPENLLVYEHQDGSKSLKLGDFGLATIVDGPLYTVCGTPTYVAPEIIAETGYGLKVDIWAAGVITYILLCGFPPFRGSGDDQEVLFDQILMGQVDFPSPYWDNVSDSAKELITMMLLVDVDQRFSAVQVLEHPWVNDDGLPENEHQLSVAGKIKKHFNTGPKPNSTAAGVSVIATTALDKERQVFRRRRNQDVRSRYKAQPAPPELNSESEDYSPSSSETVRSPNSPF

## COc1cc(C(=O)NC2CCN(C)CC2)ccc1Nc1ncc2c(n1)N(C1CCCC1)[C@@H]1CCC[C@@H]1C(=O)N2C
CAMKK2 (human)
  kinase still bound, per cent of control: 22%
CDC42BPG (human)
  kinase still bound, per cent of control: 12%
DCLK1 (human)
  kinase still bound, per cent of control: 2.4%
DCLK2 (human)
  kinase still bound, per cent of control: 2.8%
GAK (human)
  kinase still bound, per cent of control: 13%
LIMK2 (human)
  kinase still bound, per cent of control: 8.3%
MAPK7 (human)
  kinase still bound, per cent of control: 0.6%
MYLK (human)
  kinase still bound, per cent of control: 2.6%
PLK1 (human)
  kinase still bound, per cent of control: 15%
PLK3 (human)
  kinase still bound, per cent of control: 0%
ROS1 (human)
  kinase still bound, per cent of control: 31%
SLK (human)
  kinase still bound, per cent of control: 5.8%
STK33 (human)
  kinase still bound, per cent of control: 11%
TNK1 (human)
  kinase still bound, per cent of control: 21%
TTK (human)
  kinase still bound, per cent of control: 28%

## CN1C(=O)[C@H]2CCC[C@H]2N(C2CCCC2)c2nc(Nc3ccc4ncccc4c3)ncc21
AAK1 (human)
  kinase still bound, per cent of control: 12%
ACVR1 (human)
  kinase still bound, per cent of control: 16%
ADCK4 (human)
  kinase still bound, per cent of control: 10%
AURKA (human)
  kinase still bound, per cent of control: 11%
AURKB (human)
  kinase still bound, per cent of control: 21%
AURKC (human)
  kinase still bound, per cent of control: 4.6%
BMP2K (human)
  kinase still bound, per cent of control: 2.1%
CDK7 (human)
  kinase still bound, per cent of control: 30%
CSNK1D (human)
  kinase still bound, per cent of control: 4.3%
CSNK1E (human)
  kinase still bound, per cent of control: 0.15%
CSNK1G3 (human)
  kinase still bound, per cent of control: 20%
DCLK1 (human)
  kinase still bound, per cent of control: 12%
FYN (human)
  kinase still bound, per cent of control: 34%
GAK (human)
  kinase still bound, per cent of control: 1.8%
IRAK3 (human)
  kinase still bound, per cent of control: 16%
[1]
  kinase still bound, per cent of control: 15%
LATS2 (human)
  kinase still bound, per cent of control: 14%
LCK (human)
  kinase still bound, per cent of control: 19%
MAP4K2 (human)
  kinase still bound, per cent of control: 23%
MAP4K4 (human)
  kinase still bound, per cent of control: 0.8%
MAPK7 (human)
  kinase still bound, per cent of control: 0.25%
MELK (human)
  kinase still bound, per cent of control: 26%
MERTK (human)
  kinase still bound, per cent of control: 28%
MINK1 (human)
  kinase still bound, per cent of control: 1.6%
MYLK2 (human)
  kinase still bound, per cent of control: 8.3%
MYLK3 (human)
  kinase still bound, per cent of control: 7.6%
MYLK4 (human)
  kinase still bound, per cent of control: 33%
NEK2 (human)
  kinase still bound, per cent of control: 31%
NEK5 (human)
  kinase still bound, per cent of control: 11%
NEK9 (human)
  kinase still bound, per cent of control: 30%
NLK (human)
  kinase still bound, per cent of control: 12%
PIK3CG (human)
  kinase still bound, per cent of control: 34%
PIP4K2B (human)
  kinase still bound, per cent of control: 13%
PIP5K1A (human)
  kinase still bound, per cent of control: 19%
PLK1 (human)
  kinase still bound, per cent of control: 0.25%
PLK3 (human)
  kinase still bound, per cent of control: 10%
PLK4 (human)
  kinase still bound, per cent of control: 1.9%
RIOK1 (human)
  kinase still bound, per cent of control: 7.2%
RIOK2 (human)
  kinase still bound, per cent of control: 0.35%
RIOK3 (human)
  kinase still bound, per cent of control: 7.6%
RPS6KA1 KD1 (human)
  kinase still bound, per cent of control: 27%
SGK110 (human)
  kinase still bound, per cent of control: 30%
SLK (human)
  kinase still bound, per cent of control: 18%
SRPK3 (human)
  kinase still bound, per cent of control: 20%
STK16 (human)
  kinase still bound, per cent of control: 2.2%
STK17A (human)
  kinase still bound, per cent of control: 3.3%
TNIK (human)
  kinase still bound, per cent of control: 14%
TNK1 (human)
  kinase still bound, per cent of control: 1.6%
TTK (human)
  kinase still bound, per cent of control: 26%
TXK (human)
  kinase still bound, per cent of control: 34%
[2]
  kinase still bound, per cent of control: 25%
[3]
  kinase still bound, per cent of control: 31%

## O=C1NC(=O)C(=Cc2ccc(-c3ccc([N+](=O)[O-])cc3)o2)C(=O)N1
IGF1R (human)
  kinase still bound, per cent of control: 34%
LATS1 (human)
  kinase still bound, per cent of control: 0%
MAP2K3 (human)
  kinase still bound, per cent of control: 15%
MYO3B (human)
  kinase still bound, per cent of control: 28%
PAK1 (human)
  kinase still bound, per cent of control: 17%
